{"source": "patent US11059773B2", "about": "“Type-B fenolamine crystal form, preparation method, composition and use thereof” (INSTITUTE OF MATARIA MEDICA, CHINESE ACADEMY OF MEDICAL …, priority 2017, dated 2021)", "key": {"[1]": {"experiment": "Stability of type-B fenolamine crystal form solid (influencing factors: high temperature, high humidity, illumination)", "format": "physicochemical", "conditions": "starting ethanol content 2.58%", "procedure": "Type-B fenolamine crystal form samples (having a crystallized ethanol content of 2.58%) were placed in open clean watch glasses, and kept under conditions of a high temperature of 60° C., a high temperature of 40° C., and 25° C., a relative humidity of 90%±5%, and illumination at 4500 lx±500 lx for 10 days, and samples were taken on Days 0, 5, and 10. Powder X-ray diffraction (with a resultant pattern consistent to that in FIG. 1) and gas chromatography means were used for analysis."}, "[2]": {"experiment": "Dissolution of type-B fenolamine crystal form in six solvent systems", "format": "physicochemical", "procedure": "The solubility was evaluated by using a type-B fenolamine crystal form sample (fenolamine:ethanol=1:0.2) having a crystallized ethanol content of 2.0%.\nThe solvent systems were selected by: (1) referring to solvent systems used in the dissolution determination method in the Appendix of the Pharmacopoeia; (2) referring to the digestive solution pH in various organs of an organism; (3) improving the solubility of water-insoluble drugs. Based the above three references, solvent systems with six pH values were set up: a 0.1 N hydrochloric acid solution with pH 1.2; an acetate buffer solution with pH 4.5; a phosphate buffer solution with pH 6.5; an water solution with pH 6.7; a 0.2% SDS solution with pH 7.0; a 0.5% SDS solution with pH 7.3.\nMeasurement was carried out according to the solubility determination method (“Guidelines for Dissolution Test Technique of General Oral Solid Preparations (Draft)”, October 2012, the Drug Review Center). With the percentage of the samples dissolved by mass calculated from the absorbance data, solubility curves were respectively drawn with time as abscissa and dissolved contents as ordinate and shown in FIG. 10."}}, "note": "Entries after “also recorded” stand apart in the source; their conditions may differ."}
{"smiles": "COc1ccc(OC)c(/C(=C\\c2ccc(O)c(OC)c2)C(=O)NCCc2ccc(O)cc2)c1", "note": "[type-B fenolamine crystal form, trans-2-(2,5-dimethoxyphenyl)-3-(4-hydroxy-3-methoxyphenyl)-N-(4-hydroxyphenylethyl) acrylamide]", "values": [{"measurement": "Stability of the crystal form (powder X-ray diffraction and gas chromatography)", "setting": "[1]; 60° C., 40° C., 25° C. with RH 90%±5%, 4500 lx±500 lx, 10 days", "value": "stable under conditions of high temperature, high humidity and light illumination"}, {"measurement": "Crystallized ethanol content after storage", "setting": "[1]; 10 days at high temperature", "value": "about 2.1%"}, {"measurement": "Dissolution (percentage of sample dissolved by mass)", "setting": "[2]; 0.1N hydrochloric acid pH 1.2, 5 min", "value": 0.00, "unit": "%"}, {"measurement": "Dissolution (percentage of sample dissolved by mass)", "setting": "[2]; 0.1N hydrochloric acid pH 1.2, 15 min", "value": 0.00, "unit": "%"}, {"measurement": "Dissolution (percentage of sample dissolved by mass)", "setting": "[2]; 0.1N hydrochloric acid pH 1.2, 30 min", "value": 2.35, "unit": "%"}, {"measurement": "Dissolution (percentage of sample dissolved by mass)", "setting": "[2]; 0.1N hydrochloric acid pH 1.2, 60 min", "value": 5.75, "unit": "%"}, {"measurement": "Dissolution (percentage of sample dissolved by mass)", "setting": "[2]; 0.1N hydrochloric acid pH 1.2, 120 min", "value": 11.42, "unit": "%"}, {"measurement": "Dissolution (percentage of sample dissolved by mass)", "setting": "[2]; 0.1N hydrochloric acid pH 1.2, 180 min", "value": 14.07, "unit": "%"}, {"measurement": "Dissolution (percentage of sample dissolved by mass)", "setting": "[2]; 0.1N hydrochloric acid pH 1.2, 240 min", "value": 18.54, "unit": "%"}, {"measurement": "Dissolution (percentage of sample dissolved by mass)", "setting": "[2]; 0.1N hydrochloric acid pH 1.2, 300 min", "value": 20.04, "unit": "%"}, {"measurement": "Dissolution (percentage of sample dissolved by mass)", "setting": "[2]; 0.1N hydrochloric acid pH 1.2, 360 min", "value": 23.69, "unit": "%"}, {"measurement": "Dissolution (percentage of sample dissolved by mass)", "setting": "[2]; 0.1N hydrochloric acid pH 1.2, 420 min", "value": 25.07, "unit": "%"}, {"measurement": "Dissolution (percentage of sample dissolved by mass)", "setting": "[2]; 0.2% SDS pH 7.0, 5 min", "value": 21.57, "unit": "%"}, {"measurement": "Dissolution (percentage of sample dissolved by mass)", "setting": "[2]; 0.2% SDS pH 7.0, 15 min", "value": 32.50, "unit": "%"}, {"measurement": "Dissolution (percentage of sample dissolved by mass)", "setting": "[2]; 0.2% SDS pH 7.0, 30 min", "value": 42.43, "unit": "%"}, {"measurement": "Dissolution (percentage of sample dissolved by mass)", "setting": "[2]; 0.2% SDS pH 7.0, 60 min", "value": 59.66, "unit": "%"}, {"measurement": "Dissolution (percentage of sample dissolved by mass)", "setting": "[2]; 0.2% SDS pH 7.0, 120 min", "value": 91.98, "unit": "%"}, {"measurement": "Dissolution (percentage of sample dissolved by mass)", "setting": "[2]; 0.2% SDS pH 7.0, 180 min", "value": 92.35, "unit": "%"}, {"measurement": "Dissolution (percentage of sample dissolved by mass)", "setting": "[2]; 0.2% SDS pH 7.0, 240 min", "value": 95.75, "unit": "%"}, {"measurement": "Dissolution (percentage of sample dissolved by mass)", "setting": "[2]; 0.2% SDS pH 7.0, 300 min", "value": 95.82, "unit": "%"}, {"measurement": "Dissolution (percentage of sample dissolved by mass)", "setting": "[2]; 0.2% SDS pH 7.0, 360 min", "value": 95.90, "unit": "%"}, {"measurement": "Dissolution (percentage of sample dissolved by mass)", "setting": "[2]; 0.2% SDS pH 7.0, 420 min", "value": 95.93, "unit": "%"}, {"measurement": "Dissolution (percentage of sample dissolved by mass)", "setting": "[2]; 0.5% SDS pH 7.3, 5 min", "value": 35.04, "unit": "%"}, {"measurement": "Dissolution (percentage of sample dissolved by mass)", "setting": "[2]; 0.5% SDS pH 7.3, 15 min", "value": 55.30, "unit": "%"}, {"measurement": "Dissolution (percentage of sample dissolved by mass)", "setting": "[2]; 0.5% SDS pH 7.3, 30 min", "value": 73.32, "unit": "%"}, {"measurement": "Dissolution (percentage of sample dissolved by mass)", "setting": "[2]; 0.5% SDS pH 7.3, 60 min", "value": 86.90, "unit": "%"}, {"measurement": "Dissolution (percentage of sample dissolved by mass)", "setting": "[2]; 0.5% SDS pH 7.3, 120 min", "value": 97.35, "unit": "%"}, {"measurement": "Dissolution (percentage of sample dissolved by mass)", "setting": "[2]; 0.5% SDS pH 7.3, 180 min", "value": 97.69, "unit": "%"}, {"measurement": "Dissolution (percentage of sample dissolved by mass)", "setting": "[2]; 0.5% SDS pH 7.3, 240 min", "value": 98.40, "unit": "%"}, {"measurement": "Dissolution (percentage of sample dissolved by mass)", "setting": "[2]; 0.5% SDS pH 7.3, 300 min", "value": 98.47, "unit": "%"}, {"measurement": "Dissolution (percentage of sample dissolved by mass)", "setting": "[2]; 0.5% SDS pH 7.3, 360 min", "value": 98.51, "unit": "%"}, {"measurement": "Dissolution (percentage of sample dissolved by mass)", "setting": "[2]; 0.5% SDS pH 7.3, 420 min", "value": 100.00, "unit": "%"}, {"measurement": "Dissolution (percentage of sample dissolved by mass)", "setting": "[2]; Acetate buffer pH 4.5, 5 min", "value": 0.00, "unit": "%"}, {"measurement": "Dissolution (percentage of sample dissolved by mass)", "setting": "[2]; Acetate buffer pH 4.5, 15 min", "value": 0.00, "unit": "%"}, {"measurement": "Dissolution (percentage of sample dissolved by mass)", "setting": "[2]; Acetate buffer pH 4.5, 30 min", "value": 0.49, "unit": "%"}, {"measurement": "Dissolution (percentage of sample dissolved by mass)", "setting": "[2]; Acetate buffer pH 4.5, 60 min", "value": 2.57, "unit": "%"}, {"measurement": "Dissolution (percentage of sample dissolved by mass)", "setting": "[2]; Acetate buffer pH 4.5, 120 min", "value": 7.54, "unit": "%"}, {"measurement": "Dissolution (percentage of sample dissolved by mass)", "setting": "[2]; Acetate buffer pH 4.5, 180 min", "value": 11.34, "unit": "%"}, {"measurement": "Dissolution (percentage of sample dissolved by mass)", "setting": "[2]; Acetate buffer pH 4.5, 240 min", "value": 15.82, "unit": "%"}, {"measurement": "Dissolution (percentage of sample dissolved by mass)", "setting": "[2]; Acetate buffer pH 4.5, 300 min", "value": 19.51, "unit": "%"}, {"measurement": "Dissolution (percentage of sample dissolved by mass)", "setting": "[2]; Acetate buffer pH 4.5, 360 min", "value": 20.15, "unit": "%"}, {"measurement": "Dissolution (percentage of sample dissolved by mass)", "setting": "[2]; Acetate buffer pH 4.5, 420 min", "value": 20.71, "unit": "%"}, {"measurement": "Dissolution (percentage of sample dissolved by mass)", "setting": "[2]; Phosphate buffer pH 6.5, 5 min", "value": 49.51, "unit": "%"}, {"measurement": "Dissolution (percentage of sample dissolved by mass)", "setting": "[2]; Phosphate buffer pH 6.5, 15 min", "value": 49.81, "unit": "%"}, {"measurement": "Dissolution (percentage of sample dissolved by mass)", "setting": "[2]; Phosphate buffer pH 6.5, 30 min", "value": 49.89, "unit": "%"}, {"measurement": "Dissolution (percentage of sample dissolved by mass)", "setting": "[2]; Phosphate buffer pH 6.5, 60 min", "value": 49.96, "unit": "%"}, {"measurement": "Dissolution (percentage of sample dissolved by mass)", "setting": "[2]; Phosphate buffer pH 6.5, 120 min", "value": 51.08, "unit": "%"}, {"measurement": "Dissolution (percentage of sample dissolved by mass)", "setting": "[2]; Phosphate buffer pH 6.5, 180 min", "value": 51.72, "unit": "%"}, {"measurement": "Dissolution (percentage of sample dissolved by mass)", "setting": "[2]; Phosphate buffer pH 6.5, 240 min", "value": 51.87, "unit": "%"}, {"measurement": "Dissolution (percentage of sample dissolved by mass)", "setting": "[2]; Phosphate buffer pH 6.5, 300 min", "value": 53.32, "unit": "%"}, {"measurement": "Dissolution (percentage of sample dissolved by mass)", "setting": "[2]; Phosphate buffer pH 6.5, 360 min", "value": 53.40, "unit": "%"}, {"measurement": "Dissolution (percentage of sample dissolved by mass)", "setting": "[2]; Phosphate buffer pH 6.5, 420 min", "value": 53.47, "unit": "%"}, {"measurement": "Dissolution (percentage of sample dissolved by mass)", "setting": "[2]; Water pH 6.7, 5 min", "value": 0.00, "unit": "%"}, {"measurement": "Dissolution (percentage of sample dissolved by mass)", "setting": "[2]; Water pH 6.7, 15 min", "value": 0.34, "unit": "%"}, {"measurement": "Dissolution (percentage of sample dissolved by mass)", "setting": "[2]; Water pH 6.7, 30 min", "value": 2.01, "unit": "%"}, {"measurement": "Dissolution (percentage of sample dissolved by mass)", "setting": "[2]; Water pH 6.7, 60 min", "value": 5.26, "unit": "%"}, {"measurement": "Dissolution (percentage of sample dissolved by mass)", "setting": "[2]; Water pH 6.7, 120 min", "value": 11.42, "unit": "%"}, {"measurement": "Dissolution (percentage of sample dissolved by mass)", "setting": "[2]; Water pH 6.7, 180 min", "value": 20.22, "unit": "%"}, {"measurement": "Dissolution (percentage of sample dissolved by mass)", "setting": "[2]; Water pH 6.7, 240 min", "value": 21.94, "unit": "%"}, {"measurement": "Dissolution (percentage of sample dissolved by mass)", "setting": "[2]; Water pH 6.7, 300 min", "value": 26.04, "unit": "%"}, {"measurement": "Dissolution (percentage of sample dissolved by mass)", "setting": "[2]; Water pH 6.7, 360 min", "value": 28.96, "unit": "%"}, {"measurement": "Dissolution (percentage of sample dissolved by mass)", "setting": "[2]; Water pH 6.7, 420 min", "value": 32.13, "unit": "%"}, {"measurement": "Solubility in six solvent systems imitating different pH environments in human body (in words)", "setting": "[2]; compared with type-F crystal form", "value": "good solubility; also recorded: superior to the type-F crystal form"}]}
